One experiment concerns the target TRKB-wt (Homo sapiens (Human), UniProt Q16620). As to the kind of experiment: Biochemical kinase assay, TRKB-wt. To be noted: apparent inhibitory constant, kinase domain, Morrison equation; read-out: TRKB-wt Ki^app. In short, it runs like this:
(§1)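 Kinase domains (in enzyme solution: ALK I1171N/D1203N 4 nM, ROS1 0.6 nM, ROS1-G2032R 0.5 nM, TRKB 1.5 nM) were mixed with substrate solution holding 2 mM ATP and 26 μM AQT0101 (ALK, ROS1) or AQT0104 (TRKB). Initial rates from 120-min fluorescence kinetics at 30 °C were fitted to the Morrison equation (Ki^app).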

Experiment [1] has as its target Ba/F3 EML4-ALK v1 I1171N/D1203N (Homo sapiens (Human), UniProt Q9HC35+Q9UM73, D1203N/I1171N). Nature of the experiment: Ba/F3 cell proliferation assay, EML4-ALK v1 I1171N/D1203N. To be noted: for IC50: Ba/F3 stable cells, 72 hours, CellTiter-Glo. Format: cell-based. In short, it runs like this: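 Viability read by CellTiter-Glo luminescence after 72 h exposure to a 3-fold compound dilution series, with IC50 from four-parameter logistic regression. Cells were Ba/F3 rendered IL-3-independent through retroviral expression of EML4-ALK v1 I1171N/D1203N, puromycin-selected.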

The target of another experiment is Ba/F3 EML4-ALK v1 I1171N (Homo sapiens (Human), UniProt Q9HC35+Q9UM73, I1171N). Nature of the experiment: Ba/F3 cell proliferation assay, EML4-ALK v1 I1171N. The class given is cell-based. As to conditions: for IC50: Ba/F3 stable cells, 72 hours, CellTiter-Glo; for ETV6-TRKB / EML4-ALK v1 I1171N: TRKB selectivity, ratio of Ba/F3 IC50 values. In short, it runs like this: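 Ba/F3 cells stably transformed with retroviral EML4-ALK v1 I1171N, selected by IL-3 withdrawal and puromycin, grown IL-3-free. Compounds added as 3-fold dilution series, 72 h incubation; viability by CellTiter-Glo luminescence. IC50 from percent inhibition by four-parameter logistic fit, binned A/B/C.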
Sequence of Ba/F3 EML4-ALK v1 I1171N (Q9UM73 other isoform, or with tags, fused parts or gaps I1171N): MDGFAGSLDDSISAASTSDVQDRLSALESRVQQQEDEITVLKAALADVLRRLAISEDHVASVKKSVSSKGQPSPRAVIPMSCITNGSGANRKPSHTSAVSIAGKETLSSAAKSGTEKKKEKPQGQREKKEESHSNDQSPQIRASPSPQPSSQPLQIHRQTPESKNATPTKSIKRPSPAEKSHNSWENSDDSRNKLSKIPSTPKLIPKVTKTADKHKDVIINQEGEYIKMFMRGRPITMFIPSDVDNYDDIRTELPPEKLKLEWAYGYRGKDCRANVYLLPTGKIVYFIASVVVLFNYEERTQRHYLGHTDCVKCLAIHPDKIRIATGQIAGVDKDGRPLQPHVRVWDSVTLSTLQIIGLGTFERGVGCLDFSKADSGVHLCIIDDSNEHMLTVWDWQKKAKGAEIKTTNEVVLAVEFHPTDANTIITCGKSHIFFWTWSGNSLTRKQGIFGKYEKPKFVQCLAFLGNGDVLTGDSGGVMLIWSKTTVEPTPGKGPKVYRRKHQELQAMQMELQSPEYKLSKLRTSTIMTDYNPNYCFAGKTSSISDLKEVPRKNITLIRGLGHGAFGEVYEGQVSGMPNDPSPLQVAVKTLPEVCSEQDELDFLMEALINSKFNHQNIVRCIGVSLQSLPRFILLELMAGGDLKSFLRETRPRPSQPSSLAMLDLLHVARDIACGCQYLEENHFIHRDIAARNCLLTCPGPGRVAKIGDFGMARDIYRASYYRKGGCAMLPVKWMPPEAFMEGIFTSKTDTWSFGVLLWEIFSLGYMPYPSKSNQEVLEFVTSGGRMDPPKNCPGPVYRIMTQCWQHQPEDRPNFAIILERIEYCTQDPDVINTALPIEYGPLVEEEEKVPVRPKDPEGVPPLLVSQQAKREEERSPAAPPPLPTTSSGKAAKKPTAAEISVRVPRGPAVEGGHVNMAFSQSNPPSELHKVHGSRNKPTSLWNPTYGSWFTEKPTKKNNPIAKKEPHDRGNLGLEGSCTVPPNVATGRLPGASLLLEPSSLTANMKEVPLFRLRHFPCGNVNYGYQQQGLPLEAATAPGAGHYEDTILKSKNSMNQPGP

The next experiment deals with ROS1-G2032R (Homo sapiens (Human), UniProt P08922, G2032R). As to the kind of experiment: Biochemical kinase assay, ROS1-G2032R. As to conditions: apparent inhibitory constant, kinase domain, Morrison equation; read-out: ROS1-G2032R Ki^app. The method, then: (§2) First, 250 nL of compound dissolved in DMSO (100-fold of the desired concentration) was dispensed into a 384-well plate. A 12.5 μL substrate solution containing ATP (2 mM) and fluorogenic phosphorylation substrate AQT0101 ([…] for ALK and ROS, AssayQuant) or AQT0104 (26 μM for TRKB, AssayQuant) in buffer (50 mM HEPES pH 7.5, […], 0.5 mM EGTA, 10 mM MgCl2) was added and mixed thoroughly. Then, a 12.5 μL kinase solution containing ALK (1.5 nM, Carna, 08-518), ALK I1171N/D1203N (4 nM, SignalChem, custom-made), ROS1 (0.6 nM, Carma, 08-163), ROS1-G2032R (0.5 nM, SignalChem, R14-121BG), or TRKB-wt (1.5 nM, SignalChem, N17-11G) kinase domains in buffer ([…] pH 7.5, 0.01% Brij-[…], 0.4 mg/mL BSA, 0.5 mM EGTA, and 10 mM MgCl2) was added and mixed thoroughly. The plate was sealed and read by SpectraMax Paradigm at λ=485 nm every 2 minutes for 120 minutes at 30° C. Initial rates of reaction (v) were calculated from the change in fluorescence intensity over time during the initial, linear portion of the reaction. Finally, apparent inhibitory constants (Ki^app) were determined from regression of v and I (inhibitor concentration) to Morrison Equation (E=enzyme concentration): […]
Sequence of ROS1-G2032R (P08922 1945-2222 G2032R): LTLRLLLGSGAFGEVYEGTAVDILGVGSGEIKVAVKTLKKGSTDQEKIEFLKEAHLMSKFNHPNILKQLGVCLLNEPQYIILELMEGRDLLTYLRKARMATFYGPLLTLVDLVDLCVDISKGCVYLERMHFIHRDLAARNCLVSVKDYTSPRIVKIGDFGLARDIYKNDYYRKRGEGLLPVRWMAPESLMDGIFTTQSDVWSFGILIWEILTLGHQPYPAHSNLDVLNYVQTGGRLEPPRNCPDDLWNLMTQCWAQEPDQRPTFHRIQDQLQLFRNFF
(§3) Compound potency can be interpreted by binning Ki^app values against the targets: bin A for high potency, Ki^app<50 nM; bin B for medium potency, 50 nM≤Ki^app<500 nM; and bin C for low potency, Ki^app≥500 nM. […] “nd” means not determined.

A further experiment concerns the target ALK I1171N/D1203N (Homo sapiens (Human), UniProt Q9UM73, D1203N/I1171N). As to the kind of experiment: Biochemical kinase assay, ALK I1171N/D1203N. As to conditions: apparent inhibitory constant, kinase domain, Morrison equation; read-out: ALK-I1171N-D1203N Ki^app. In outline: as §1
In another experiment the target is Ba/F3 ETV6-TRKB (Homo sapiens, UniProt Q16620). As to the kind of experiment: Ba/F3 cell proliferation assay, ETV6-TRKB. Format: cell-based. In outline: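 Growth inhibition after 72 h compound exposure (3-fold series) was measured by CellTiter-Glo in IL-3-independent Ba/F3 cells stably expressing ETV6-TRKB. A four-parameter logistic fit of percent inhibition versus concentration gave IC50.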
Sequence of Ba/F3 ETV6-TRKB (Q16620 32-822 limits assumed, change not shown): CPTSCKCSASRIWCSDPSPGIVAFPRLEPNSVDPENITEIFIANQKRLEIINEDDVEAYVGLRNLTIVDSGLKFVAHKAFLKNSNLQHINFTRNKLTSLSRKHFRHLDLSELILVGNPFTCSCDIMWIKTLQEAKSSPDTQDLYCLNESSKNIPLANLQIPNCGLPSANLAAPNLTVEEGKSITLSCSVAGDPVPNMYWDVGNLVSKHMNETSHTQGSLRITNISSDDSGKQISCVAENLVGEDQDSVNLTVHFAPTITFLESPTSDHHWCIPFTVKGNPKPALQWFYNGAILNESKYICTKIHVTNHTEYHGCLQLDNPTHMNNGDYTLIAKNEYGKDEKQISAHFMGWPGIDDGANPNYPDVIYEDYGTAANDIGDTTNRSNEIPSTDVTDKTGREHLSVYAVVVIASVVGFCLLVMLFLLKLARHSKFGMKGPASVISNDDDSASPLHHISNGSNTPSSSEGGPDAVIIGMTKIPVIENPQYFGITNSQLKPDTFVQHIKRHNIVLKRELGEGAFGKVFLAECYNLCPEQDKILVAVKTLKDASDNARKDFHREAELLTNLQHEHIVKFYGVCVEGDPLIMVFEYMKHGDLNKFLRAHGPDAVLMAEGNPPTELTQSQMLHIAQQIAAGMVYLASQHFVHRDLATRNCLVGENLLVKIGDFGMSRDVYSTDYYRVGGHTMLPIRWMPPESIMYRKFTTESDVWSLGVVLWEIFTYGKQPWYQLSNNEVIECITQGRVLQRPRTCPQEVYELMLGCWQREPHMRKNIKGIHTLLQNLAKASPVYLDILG

Another experiment has as its target ROS1 (Homo sapiens (Human), UniProt P08922). Nature of the experiment: Biochemical kinase assay, ROS1-wt. To be noted: apparent inhibitory constant, kinase domain, Morrison equation; read-out: ROS1-wt Ki^app. The method, then: as §2, §3
The mark [2] stands for this setting: TRKB selectivity, ratio of Ba/F3 IC50 values.
Setting [3] is: Ba/F3 stable cells, 72 hours, CellTiter-Glo; read-out: ETV6-TRKB IC50.

Like-named read-outs stand apart in the source and are kept apart here.

Sequence of TRKB-wt (Q16620 538-807): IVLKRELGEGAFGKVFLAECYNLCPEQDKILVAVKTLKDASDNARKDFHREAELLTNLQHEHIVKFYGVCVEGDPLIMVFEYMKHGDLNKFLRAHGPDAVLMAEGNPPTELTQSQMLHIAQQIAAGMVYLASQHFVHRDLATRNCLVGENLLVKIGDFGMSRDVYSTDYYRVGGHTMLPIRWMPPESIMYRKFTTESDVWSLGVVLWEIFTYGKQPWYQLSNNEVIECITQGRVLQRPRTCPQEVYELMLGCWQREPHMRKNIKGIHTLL
Sequence of ALK I1171N/D1203N (Q9UM73 1116-1392 I1171N/D1203N): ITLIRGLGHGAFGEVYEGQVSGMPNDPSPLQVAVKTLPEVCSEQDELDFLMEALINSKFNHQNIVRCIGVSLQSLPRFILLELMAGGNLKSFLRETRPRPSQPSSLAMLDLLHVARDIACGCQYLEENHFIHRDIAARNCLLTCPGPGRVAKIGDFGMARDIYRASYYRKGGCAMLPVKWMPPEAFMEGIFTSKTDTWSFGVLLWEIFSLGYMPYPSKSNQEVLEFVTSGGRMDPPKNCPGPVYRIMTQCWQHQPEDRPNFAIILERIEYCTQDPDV
Sequence of ROS1 (P08922 1945-2222): as the sequence (P08922 1945-2222 G2032R) above, with R88G counted along it
Sequence of Ba/F3 EML4-ALK v1 I1171N/D1203N (Q9UM73 other isoform, or with tags, fused parts or gaps I1171N/D1203N): as the sequence (Q9UM73 other isoform, or with tags, fused parts or gaps I1171N) above, with D642N counted along it

With `C[C@H]1Oc2cc(cnc2N)-c2c(C#N)nn(C(=O)N(C)C)c2Cc2cccnc2-c2ccc(F)cc21` [Example 27, N,N-dimethyl-(R)-23-amino-3-cyano-17-fluoro-20-methyl-21-oxa-4,5,12,24-tetraazapentacyclo[20.3.1.0^2,^6.0^8,^13.0^14,^19]hexacosa-1(25),2(6),3,8(13),9,11,14,16,18,22(26),23-undecaene-5-carboxamide], the Ki at TRKB-wt, at ROS1-G2032R, on ALK I1171N/D1203N and on ROS1 was under 50 nM each time. Also, the 50% inhibitory concentration (IC50) in experiment [1] is 0.1 to 50 nM; against Ba/F3 EML4-ALK v1 I1171N it was 0.1 to 50 nM; at Ba/F3 ETV6-TRKB (read-out: ETV6-TRKB IC50; Ba/F3 stable cells, 72 hours, CellTiter-Glo) it was 50 to 500 nM. In experiment [1] (setting [2]), the “ETV6-TRKB / EML4-ALK v1 I1171N/D1203N” value is given as “A (bin A for very high selectivity, ratio≥30-fold)”. Also, the “ETV6-TRKB / EML4-ALK v1 I1171N” value at Ba/F3 EML4-ALK v1 I1171N is reported as “A (bin A for very high selectivity, ratio≥30-fold)”.
With `CCn1nc(C#N)c2c1-c1cnc(N)c(c1)O[C@H](C)c1cc(F)ccc1-c1nn(C)cc1C2` [Example 4, (R)-22-amino-3-ethyl-16-fluoro-10-methyl-19-methyl-20-oxa-3,4,10,11,23-pentaazapentacyclo[19.3.1.0^2,^6.0^8,^12.0^13,^18]pentacosa-1(24),2(6),4,8,11,13,15,17,21(25),22-decaene-5-carbonitrile], the IC50 in experiment [1] is over 500 nM; on Ba/F3 EML4-ALK v1 I1171N it was 50 to 500 nM; at Ba/F3 ETV6-TRKB (setting [3]), 50 to 500 nM. Further, the “ETV6-TRKB / EML4-ALK v1 I1171N/D1203N” value in experiment [1] (setting [2]) is recorded as “D (bin D for low selectivity, ratio<1)”. The “ETV6-TRKB / EML4-ALK v1 I1171N” value at Ba/F3 EML4-ALK v1 I1171N was “C (bin C for moderate selectivity, ratio≥1 but<10)”. Besides, the Ki at ROS1-G2032R and on ROS1 was under 50 nM throughout.
For `C[C@H]1Oc2cc(cnc2N)-c2c(nn(C)c2C#N)C(=O)c2cccnc2-c2ccc(F)cc21` [Example 49, (R)-23-amino-17-fluoro-4-methyl-20-methyl-7-oxo-21-oxa-4,5,12,24-tetraazapentacyclo[20.3.1.0^2,6.0^8,13.0^14,19]hexacosa-1(25),2,5,8(13),9,11.14,16,18,22(26),23-undecaene-3-carbonitrile], the Ki at TRKB-wt was 50 to 500 nM; on ROS1-G2032R, 50 to 500 nM; at ALK I1171N/D1203N it was under 50 nM; on ROS1, under 50 nM. Moreover, the IC50 fell in the range of 0.1 to 50 nM in experiment [1], 0.1 to 50 nM on Ba/F3 EML4-ALK v1 I1171N and 50 to 500 nM at Ba/F3 ETV6-TRKB (setting [3]). Besides, the “ETV6-TRKB / EML4-ALK v1 I1171N/D1203N” value in experiment [1] (setting [2]) is “A (bin A for very high selectivity, ratio≥30-fold)”. Further, in experiment [1] (TRKB selectivity, ratio of Ba/F3 IC50 values, Table 6 bins), the “Selectivity for Ba/F3 EML4-ALK v1 I1171N-D1203N IC50 over Ba/F3 ETV6-TRKB IC50” value was “AA (bin AA for the selectivity with the ratio≥30-fold)”. Besides, the “ETV6-TRKB / EML4-ALK v1 I1171N” value on Ba/F3 EML4-ALK v1 I1171N is “A (bin A for very high selectivity, ratio≥30-fold)”.
With `C[C@H]1Oc2cc(cnc2N)-c2c(c(C(=O)N3CCC3)nn2CC2CC2)Cc2cn(C)nc2-c2ccc(F)cc21` [Example 9, {(R)-22-amino-3-(cyclopropylmethyl)-16-fluoro-10-methyl-19-methyl-20-oxa-3,4,10,11,23-pentaazapentacyclo[19.3.1.0^2,^6.0^8,^12.0^13,^18]pentacosa-1(24),2(6),4,8,11,13,15,17,21(25),22-decaen-5-yl}(1-azetidinyl)methanone], the Ki on TRKB-wt is 50 to 500 nM; at ROS1-G2032R, under 50 nM; on ALK I1171N/D1203N it was under 50 nM; at ROS1 it was under 50 nM. Further, the results for the IC50 (in experiment [1]; at Ba/F3 ETV6-TRKB (setting [3])) were 50 to 500 nM and over 500 nM, respectively. The “ETV6-TRKB / EML4-ALK v1 I1171N/D1203N” value in experiment [1] (setting [2]) is listed as “B (bin B for high selectivity, ratio≥10-fold but<30)”.
On to `CCn1nc(C(=O)N(C)C)c2c1-c1cnc(N)c(c1)O[C@H](C)c1cc(F)ccc1-c1nn(C)cc1C2` [Example 7, N,N-dimethyl-(R)-22-amino-3-ethyl-16-fluoro-10-methyl-19-methyl-20-oxa-3,4,10,11,23-pentaazapentacyclo[19.3.1.0^2,6.0^8,12.0^13,18]pentacosa-1(24),2(6),4,8,11,13,15,17.21(25),22-decaene-5-carboxamide], for which the Ki on TRKB-wt, at ROS1-G2032R, on ALK I1171N/D1203N and at ROS1 was under 50 nM in each case. Moreover, the half-maximal inhibitory concentration (IC50) in experiment [1] fell in the range of 0.1 to 50 nM; on Ba/F3 EML4-ALK v1 I1171N it was 0.1 to 50 nM; on Ba/F3 ETV6-TRKB (setting [3]), 50 to 500 nM. Moreover, the “ETV6-TRKB / EML4-ALK v1 I1171N/D1203N” value in experiment [1] (setting [2]) is given as “C (bin C for moderate selectivity, ratio≥1 but<10)”. The “ETV6-TRKB / EML4-ALK v1 I1171N” value at Ba/F3 EML4-ALK v1 I1171N is given as “B (bin B for high selectivity, ratio≥10-fold but<30)”.
Regarding `Cc1nc2c(s1)Cc1c(c(C#N)nn1C(=O)N(C)C)-c1cnc(N)c(c1)O[C@H](C)c1cc(F)ccc1-2` [Example 58, N,N-dimethyl-(R)-22-amino-3-cyano-16-fluoro-10,19-dimethyl-20-oxa-9-thia-4,5,11,23-tetraazapentacyclo[19.3.1.0^2,^6.0^8,^12.0^13,^18]pentacosa-1(24),2(6),3,8(12),10,13,15,17,21(25),22-decaene-5-carboxamide], the Ki was 50 to 500 nM at TRKB-wt, under 50 nM at ROS1-G2032R, under 50 nM at ALK I1171N/D1203N and under 50 nM on ROS1. Moreover, the results for the concentration for half-maximal inhibition (IC50) (in experiment [1]; against Ba/F3 EML4-ALK v1 I1171N; at Ba/F3 ETV6-TRKB (setting [3])) were 50 to 500 nM, 0.1 to 50 nM and over 500 nM, respectively. The “ETV6-TRKB / EML4-ALK v1 I1171N/D1203N” value in experiment [1] (setting [2]) is given as “C (bin C for moderate selectivity, ratio≥1 but<10)”. Further, the “ETV6-TRKB / EML4-ALK v1 I1171N” value on Ba/F3 EML4-ALK v1 I1171N is “A (bin A for very high selectivity, ratio≥30-fold)”.
With `C[C@H]1Oc2cc(cnc2N)-c2c(c(C(=O)N(C)C)nn2CC2CC2)Cc2cn(C)nc2-c2ccc(F)cc21` [Example 8, N,N-dimethyl-(R)-22-amino-3-(cyclopropylmethyl)-16-fluoro-10-methyl-19-methyl-20-oxa-3,4,10,11,23-pentaazapentacyclo[19.3.1.0^2,^6.0^8,^12.0^13,^18]pentacosa-1(24),2(6),4,8,11,13,15, 17,21(25),22-decaene-5-carboxamide], the Ki at TRKB-wt was 50 to 500 nM; on ROS1-G2032R, under 50 nM; on ALK I1171N/D1203N it was under 50 nM; at ROS1 it was under 50 nM. Further, the IC50 is 0.1 to 50 nM in experiment [1], 0.1 to 50 nM against Ba/F3 EML4-ALK v1 I1171N and over 500 nM at Ba/F3 ETV6-TRKB (setting [3]). Also, the “ETV6-TRKB / EML4-ALK v1 I1171N/D1203N” value in experiment [1] (setting [2]) is “A (bin A for very high selectivity, ratio≥30-fold)”. Further, the “ETV6-TRKB / EML4-ALK v1 I1171N” value at Ba/F3 EML4-ALK v1 I1171N was “A (bin A for very high selectivity, ratio≥30-fold)”.

The values are drawn from patent US20250326769A1, “HETEROAROMATIC MACROCYCLIC ETHER CHEMOTHERAPEUTIC AGENTS” (Nuvalent, Inc., priority 2022, published 2025).
